Measured values as given in PubChem BioAssay (NCI).
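How tested: cells in 96-well plates exposed to compound for 48 hours at five concentrations. GI50 is the concentration that inhibits growth by half. TGI is the concentration that stops growth completely.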

What was measured:
Test in all cases: inhibition of tumour cell growth, NCI panel, 48 h
SNB-75 CNS = system: SNB-75 CNS
MDA-MB-231 breast = system: MDA-MB-231 breast
NCI-H226 lung = system: NCI-H226 lung
IGROV1 ovarian = system: IGROV1 ovarian
HOP-62 NSCLC = system: HOP-62 NSCLC
SF-539 CNS = system: SF-539 CNS
MDA-MB-435 = system: MDA-MB-435
T-47D breast = system: T-47D breast
COLO 205 colon = system: COLO 205 colon
HL-60(TB) leukemia = system: HL-60(TB) leukemia
EKVX NSCLC = system: EKVX NSCLC
OVCAR-4 ovarian = system: OVCAR-4 ovarian
SK-OV-3 ovarian = system: SK-OV-3 ovarian
K-562 leukemia = system: K-562 leukemia
RPMI-8226 leukemia = system: RPMI-8226 leukemia
U251 CNS = system: U251 CNS
MOLT-4 leukemia = system: MOLT-4 leukemia
SW-620 colon = system: SW-620 colon
NCI-H23 lung = system: NCI-H23 lung
SF-268 CNS = system: SF-268 CNS
MALME-3M melanoma = system: MALME-3M melanoma
HS 578T breast = system: HS 578T breast
SR leukemia = system: SR leukemia
SK-MEL-2 melanoma = system: SK-MEL-2 melanoma
OVCAR-8 ovarian = system: OVCAR-8 ovarian
CCRF-CEM leukemia = system: CCRF-CEM leukemia
SNB-19 CNS = system: SNB-19 CNS
M14 melanoma = system: M14 melanoma
LOX IMVI melanoma = system: LOX IMVI melanoma
RXF 393 renal = system: RXF 393 renal
UO-31 renal = system: UO-31 renal
SN12C renal = system: SN12C renal
HCC-2998 colon = system: HCC-2998 colon
OVCAR-5 ovarian = system: OVCAR-5 ovarian
HT29 colon = system: HT29 colon
UACC-257 melanoma = system: UACC-257 melanoma
NCI/ADR-RES ovarian = system: NCI/ADR-RES ovarian
A549 NSCLC = system: A549 NSCLC
OVCAR-3 ovarian = system: OVCAR-3 ovarian
ACHN renal = system: ACHN renal
PC-3 prostate = system: PC-3 prostate
BT-549 breast = system: BT-549 breast
MCF7 breast = system: MCF7 breast
A498 renal = system: A498 renal
SK-MEL-5 melanoma = system: SK-MEL-5 melanoma
DU-145 prostate = system: DU-145 prostate
NCI-H460 lung = system: NCI-H460 lung
HCT-15 colon = system: HCT-15 colon
HOP-92 NSCLC = system: HOP-92 NSCLC
786-0 renal = system: 786-0 renal
SK-MEL-28 melanoma = system: SK-MEL-28 melanoma
HCT-116 colon = system: HCT-116 colon
SF-295 CNS = system: SF-295 CNS
UACC-62 melanoma = system: UACC-62 melanoma
NCI-H522 lung = system: NCI-H522 lung
KM12 colon = system: KM12 colon

## Clc1ccc(Nc2nnc(CNc3ccccc3)c3ccccc23)cc1
SNB-75 CNS
  GI50: 0.871 µM
  TGI: 7.05 µM
MDA-MB-231 breast
  GI50: 1.95 µM
  TGI: 8.73 µM
NCI-H226 lung
  GI50: 2.52 µM
  TGI: 7.98 µM
IGROV1 ovarian
  GI50: 1.93 µM
  TGI: 10.7 µM
HOP-62 NSCLC
  GI50: 2.86 µM
  TGI: 8.84 µM
SF-539 CNS
  GI50: 3.67 µM
  TGI: 8.09 µM
MDA-MB-435
  GI50: 1.47 µM
  TGI: 7.88 µM
T-47D breast
  GI50: 1.17 µM
  TGI: 8.28 µM
COLO 205 colon
  GI50: 0.915 µM
  TGI: 5.39 µM
HL-60(TB) leukemia
  GI50: 3.71 µM
  TGI: 13 µM
EKVX NSCLC
  GI50: 1.61 µM
  TGI: 15 µM
OVCAR-4 ovarian
  GI50: 3 µM
  TGI: > 25 µM
SK-OV-3 ovarian
  GI50: 3.17 µM
  TGI: 11.4 µM
K-562 leukemia
  GI50: 1.71 µM
  TGI: 14.5 µM
RPMI-8226 leukemia
  GI50: 2.1 µM
  TGI: 7.71 µM
U251 CNS
  GI50: 3.28 µM
  TGI: 7.33 µM
MOLT-4 leukemia
  GI50: 1.71 µM
  TGI: 8.74 µM
SW-620 colon
  GI50: 3.84 µM
  TGI: 11.1 µM
NCI-H23 lung
  GI50: 2.5 µM
  TGI: 16.4 µM
SF-268 CNS
  GI50: 3.28 µM
  TGI: 14.5 µM
MALME-3M melanoma
  GI50: 2.66 µM
  TGI: 9.92 µM
HS 578T breast
  GI50: 2.95 µM
  TGI: 12.9 µM
SR leukemia
  GI50: 1.75 µM
  TGI: 12.3 µM
SK-MEL-2 melanoma
  GI50: 2.16 µM
  TGI: 5.83 µM
OVCAR-8 ovarian
  GI50: 4.63 µM
  TGI: 16.8 µM
CCRF-CEM leukemia
  GI50: 3.53 µM
  TGI: 17.6 µM
SNB-19 CNS
  GI50: 4.71 µM
  TGI: 22.7 µM
M14 melanoma
  GI50: 1.74 µM
  TGI: 6.65 µM
LOX IMVI melanoma
  GI50: 1.57 µM
  TGI: 4.97 µM
RXF 393 renal
  GI50: 2.6 µM
  TGI: 8.12 µM
UO-31 renal
  GI50: 1.36 µM
  TGI: 6.66 µM
SN12C renal
  GI50: 3.95 µM
  TGI: 18.9 µM
HCC-2998 colon
  GI50: 4.85 µM
  TGI: 15.9 µM
OVCAR-5 ovarian
  GI50: 4.92 µM
  TGI: > 25 µM
HT29 colon
  GI50: 1.46 µM
  TGI: 6.36 µM
UACC-257 melanoma
  GI50: 2.74 µM
  TGI: 6.87 µM
NCI/ADR-RES ovarian
  GI50: 4.12 µM
  TGI: 17 µM
A549 NSCLC
  GI50: 3.17 µM
  TGI: 20 µM
OVCAR-3 ovarian
  GI50: 3.51 µM
  TGI: 8.69 µM
ACHN renal
  GI50: 3.1 µM
  TGI: > 25 µM
PC-3 prostate
  GI50: 1.91 µM
  TGI: 14.4 µM
BT-549 breast
  GI50: 2.93 µM
  TGI: 8.2 µM
MCF7 breast
  GI50: 2.68 µM
  TGI: 11.1 µM
A498 renal
  GI50: 1.45 µM
  TGI: 6.06 µM
SK-MEL-5 melanoma
  GI50: 2.08 µM
  TGI: 5.27 µM
DU-145 prostate
  GI50: 4.55 µM
  TGI: > 25 µM
NCI-H460 lung
  GI50: 3.21 µM
  TGI: 9.97 µM
HCT-15 colon
  GI50: 2.99 µM
  TGI: 9.39 µM
HOP-92 NSCLC
  GI50: 0.777 µM
  TGI: 6.3 µM
786-0 renal
  GI50: 4.01 µM
  TGI: 12.5 µM
SK-MEL-28 melanoma
  GI50: 3.67 µM
  TGI: 10.5 µM
HCT-116 colon
  GI50: 1.2 µM
  TGI: 5.02 µM
SF-295 CNS
  GI50: 2.98 µM
  TGI: 8.77 µM
UACC-62 melanoma
  GI50: 1.25 µM
  TGI: 5.7 µM
NCI-H522 lung
  GI50: 0.684 µM
  TGI: 4.62 µM
KM12 colon
  GI50: 3.05 µM
  TGI: 9.92 µM
